Laboratory results reported in ChEMBL document CHEMBL1201862, “PubChem BioAssay data set” (2004).
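Cells were grown in 96-well plates and exposed to each compound for 48 hours at five concentrations; endpoints were interpolated linearly between bracketing concentrations, or set to the highest concentration if not reached. GI50 is the concentration that inhibits growth by half.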 Calls of active or inactive are those of the source. Cut-off read from the data, not from the text of the source: active = GI50 up to about 1.1 µM and inactive = higher.

Key:
Test in all cases: DTP human tumour cell line panel, 48 h
HT-29 = system: HT-29
A549 = system: A549
SN12C = system: SN12C
T47D = system: T47D
SK-MEL-5 = system: SK-MEL-5
MDA-MB-435 = system: MDA-MB-435
SF-295 = system: SF-295
786-0 = system: 786-0
SNB-75 = system: SNB-75
UACC-62 = system: UACC-62
MDA-N = system: MDA-N
K562 = system: K562
NCI-H522 = system: NCI-H522
IGROV-1 = system: IGROV-1
SK-OV-3 = system: SK-OV-3
NCI-H460 = system: NCI-H460
NCI-H226 = system: NCI-H226
COLO 205 = system: COLO 205
SF-539 = system: SF-539
M14 = system: M14
DU-145 = system: DU-145
OVCAR-4 = system: OVCAR-4
RPMI-8226 = system: RPMI-8226
MOLT-4 = system: MOLT-4
Malme-3M = system: Malme-3M
HCC 2998 = system: HCC 2998
OVCAR-5 = system: OVCAR-5
HL-60 = system: HL-60
HOP-92 = system: HOP-92
Hs-578T = system: Hs-578T
TK-10 = system: TK-10
HCT-15 = system: HCT-15
EKVX = system: EKVX
SK-MEL-28 = system: SK-MEL-28
ACHN = system: ACHN
RXF 393 = system: RXF 393
OVCAR-3 = system: OVCAR-3
SF-268 = system: SF-268
U-251 = system: U-251
HOP-62 = system: HOP-62
KM12 = system: KM12
NCI/ADR-RES = system: NCI/ADR-RES
SNB-19 = system: SNB-19
UO-31 = system: UO-31
PC-3 = system: PC-3
SK-MEL-2 = system: SK-MEL-2
BT-549 = system: BT-549
HCT-116 = system: HCT-116
NCI-H23 = system: NCI-H23
MCF7 = system: MCF7
OVCAR-8 = system: OVCAR-8
MDA-MB-231 = system: MDA-MB-231
UACC-257 = system: UACC-257
A498 = system: A498
SW-620 = system: SW-620
CCRF-CEM = system: CCRF-CEM

Q: Which results are given for `CCCCCCCCCCCCO[PH](=O)OCCCCCCCCCCCC`?
A: GI50 (HT-29): > 100 µM (inactive); GI50 (A549): > 100 µM (inactive); GI50 (SN12C): > 100 µM (inactive); GI50 (T47D): > 100 µM (inactive); GI50 (SK-MEL-5): > 100 µM (inactive); GI50 (MDA-MB-435): > 100 µM (inactive); GI50 (SF-295): > 100 µM (inactive); GI50 (786-0): > 100 µM (inactive); GI50 (SNB-75): > 100 µM (inactive); GI50 (UACC-62): > 100 µM (inactive); GI50 (MDA-N): > 100 µM (inactive); GI50 (K562): > 100 µM (inactive); GI50 (NCI-H522): > 100 µM (inactive); GI50 (IGROV-1): > 100 µM (inactive); GI50 (SK-OV-3): > 100 µM (inactive); GI50 (NCI-H460): > 100 µM (inactive); GI50 (NCI-H226): > 100 µM (inactive); GI50 (COLO 205): > 100 µM (inactive); GI50 (SF-539): > 100 µM (inactive); GI50 (M14): > 100 µM (inactive); GI50 (DU-145): > 100 µM (inactive); GI50 (OVCAR-4): > 100 µM (inactive); GI50 (RPMI-8226): > 100 µM (inactive); GI50 (MOLT-4): > 100 µM (inactive); GI50 (Malme-3M): > 100 µM (inactive); GI50 (HCC 2998): > 100 µM (inactive); GI50 (OVCAR-5): > 100 µM (inactive); GI50 (HL-60): > 100 µM (inactive); GI50 (HOP-92): > 100 µM (inactive); GI50 (Hs-578T): > 100 µM (inactive); GI50 (TK-10): 34.4 µM (inactive); GI50 (HCT-15): > 100 µM; GI50 (EKVX): > 100 µM (inactive); GI50 (SK-MEL-28): > 100 µM (inactive); GI50 (ACHN): > 100 µM (inactive); GI50 (RXF 393): > 100 µM (inactive); GI50 (OVCAR-3): > 100 µM (inactive); GI50 (SF-268): > 100 µM (inactive); GI50 (U-251): > 100 µM (inactive); GI50 (HOP-62): > 100 µM (inactive); GI50 (KM12): 32.2 µM (inactive); GI50 (NCI/ADR-RES): > 100 µM (inactive); GI50 (SNB-19): > 100 µM (inactive); GI50 (UO-31): > 100 µM (inactive); GI50 (PC-3): > 100 µM (inactive); GI50 (SK-MEL-2): > 100 µM (inactive); GI50 (BT-549): > 100 µM (inactive); GI50 (HCT-116): > 100 µM (inactive); GI50 (NCI-H23): > 100 µM (inactive); GI50 (MCF7): > 100 µM (inactive); GI50 (OVCAR-8): > 100 µM (inactive); GI50 (MDA-MB-231): > 100 µM (inactive); GI50 (UACC-257): 28.3 µM (inactive); GI50 (A498): > 100 µM (inactive); GI50 (SW-620): > 100 µM (inactive); GI50 (CCRF-CEM): > 100 µM (inactive)
